Results as given in PubChem BioAssay (NCI).
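How tested: cells in 96-well plates exposed to compound for 48 hours at five concentrations. Abbreviation: GI50, concentration required for 50% inhibition of growth. TGI is the concentration that stops growth completely.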

Experiments:
Experiment in all cases: NCI-60 cell line screen, 48 h
[1] = test system: DU-145 prostate
[2] = test system: EKVX NSCLC
[3] = test system: HCT-15 colon
[4] = test system: HS 578T breast
[5] = test system: K-562 leukemia
[6] = test system: MDA-MB-231 breast
[7] = test system: NCI-H522 lung
[8] = test system: OVCAR-8 ovarian
[9] = test system: RPMI-8226 leukemia
[10] = test system: SK-OV-3 ovarian

| Compound | GI50 [1] [µM] | TGI [1] [µM] | GI50 [2] [µM] | TGI [2] [µM] | GI50 [3] [µM] | TGI [3] [µM] | GI50 [4] [µM] | TGI [4] [µM] | GI50 [5] [µM] | TGI [5] [µM] | GI50 [6] [µM] | TGI [6] [µM] | GI50 [7] [µM] | TGI [7] [µM] | GI50 [8] [µM] | TGI [8] [µM] | GI50 [9] [µM] | TGI [9] [µM] | GI50 [10] [µM] | TGI [10] [µM] |
| --- | --- | --- | --- | --- | --- | --- | --- | --- | --- | --- | --- | --- | --- | --- | --- | --- | --- | --- | --- | --- |
| COc1ccc([C@H]2O[C@@H](CO)C[C@]2(O)c2ccc(OC)cc2)cc1 | > 100 | > 100 | > 100 | > 100 | > 100 | > 100 | 39.5 | > 100 | > 100 | > 100 | > 100 | > 100 | > 100 | > 100 | > 100 | > 100 | > 100 | > 100 | > 100 | > 100 |
| COc1cc(C2C(C#N)=C(N)OC3=C2C(=O)c2ccccc2C3=O)cc(OC)c1OC (stereo not given) | 0.474 | 15.9 | 12.6 | 34 | 1.45 | 18.5 | 0.382 | 49.3 | 0.415 | > 100 | 3.53 | 41.7 | 0.26 | 16.8 | 1.12 | 24.1 | 1.36 | 33.5 | 4.88 | > 100 |
| Oc1ccccc1-n1c(-c2ccccc2)ccc1-c1ccccc1 | 7 | 19.7 | 2.64 | 25.3 | 5.57 | 28.7 | 14 | > 100 | 5.17 | 64.3 | 4.21 | 22.1 | 2.74 | 12.8 | 12.1 | 29.6 | 3.71 | 17.9 | 8.93 | > 100 |
| O=C(/C=C/c1ccco1)Nc1ncc(Cc2ccc(F)cc2)s1 | 0.0901 | > 100 | 0.303 | > 100 | 0.0461 | > 100 | 0.124 | > 100 | 0.0385 | > 100 | 0.199 | > 45.4 | 0.0255 | 0.191 | 0.152 | > 100 | 0.0721 | > 100 | 0.0455 | > 100 |
| CC(=O)Oc1cccc2c1C(=O)c1c(OC(C)=O)cc(C)cc1C2=O | – | > 100 | – | > 100 | – | > 100 | – | > 100 | – | > 100 | – | > 100 | – | > 100 | – | > 100 | – | 43.8 | – | > 100 |
| O=C1c2cc(CCl)sc2C(=O)c2ccsc21 | – | 0.332 | – | 2.74 | – | 1.48 | – | 0.498 | – | 0.478 | – | 0.588 | – | 1.12 | – | 0.674 | – | 0.558 | – | 3.36 |
